Test [1] can be described thus: Selectivity index is calculated by dividing the TC25(MT2) by ID50(MT2). It is filed as functional.
Test [2] concerns MT2. Briefly: Total viral index (TAI) is the area between the cytotoxicity and the antiviral activity curve for MT-2 cell line. It is filed as functional, Homo sapiens.
For test [3], the system named is MT2. Kind of test: Minimum compound concentration that reduced cell viability by 25% for HIV replication in MT-2 cells. It is filed as functional, Homo sapiens.
For test [4], the system named is MT2. Kind of test: Compound was tested for its inhibitory activity against HIV replication in MT-2 cells. The test is classed as functional, cell-based. Particulars: Homo sapiens.
Test [5] deals with CCRF-CEM. Kind of test: Minimum compound concentration that reduced cell viability by 25% for HIV replication in CEM cells. The test is classed as functional, Homo sapiens.
Test [6] concerns CCRF-CEM. Briefly: Compound was tested for its inhibitory activity against HIV replication in CEM cells. The test is classed as functional, cell-based. Particulars: Homo sapiens.
In test [7] the test system is CCRF-CEM. Kind of test: Total viral index (TAI) is the area between the cytotoxicity and the antiviral activity curve for CEM cell line. It is filed as functional, Homo sapiens.
The nature of test [8]: Selectivity index is calculated by dividing the TC25(CEM) by ID50(CEM). It is filed as functional.
Test [9] relates to MT2. Kind of test: Total viral index (TAI) is the area between the cytotoxicity and the antiviral activity curve for MT-2 cells. The test is classed as functional, Homo sapiens.
Test [10] deals with CCRF-CEM. Kind of test: Total viral index (TAI) is the area between the cytotoxicity and the antiviral activity curve for CEM cells. The test is classed as functional, Homo sapiens.
In test [11] the test system is CCRF-CEM. Briefly: Total viral index (TAI) is the area between the cytotoxicity and the antiviral activity curve for CEM cells.
Test [12] deals with CCRF-CEM. Kind of test: Compound was tested for its inhibitory activity against HIV replication in CEM cells. Particulars: Homo sapiens.
Test [13] has as its system CCRF-CEM. Kind of test: Minimum compound concentration that reduced cell viability by 25% for HIV replication in CEM cells.

By IC50 is commonly meant the concentration that gives 50% inhibition. A higher IC50 goes with weaker potency.

Molecules are shown by their SMILES. Values after ≈ are worked out from the molar mass of the structure shown.

Take `Nc1nc(O)c2ncn(C3CC[C@@H](CO)S3)c2n1` (some centres not stated): in test [1], the Selectivity index was 1.6. In addition, the TAI in the test with MT2 [2] stood at 11. In addition, the values for the TC25 in the test on MT2 [3] and in the test with CCRF-CEM [5] were over 200 µg/mL and over 100 µg/mL, respectively. This compound had an IC50 with MT2 [4] of 98 µg/mL (≈ 367 µM).
Regarding `Nc1ccn(C2CC[C@@H](CO)S2)c(=O)n1` (some centres not stated), the IC50 in the test on CCRF-CEM [6] turned out to be 1 µg/mL (≈ 4.4 µM); in the test with MT2 [4], 38 µg/mL (≈ 167 µM). The Selectivity index in test [1] and in test [8] was over 100 throughout. The results for the TAI in the test with CCRF-CEM [7] and in the test with MT2 [9] were over 65 and over 23, respectively. Further, the TC25 with MT2 [3] and in the test on CCRF-CEM [5] was over 100 µg/mL each time.
As for `Nc1ncnc2c1ncn2C1CC[C@@H](CO)S1` (some centres not stated), the Selectivity index in [1] is 1.3. For the same compound, the TAI with MT2 [2] was over 10. The TC25 in the test with MT2 [3] was over 100 µg/mL. For the same compound, in the test on MT2 [4], the IC50 is 80 µg/mL (≈ 318 µM).
Regarding `Cc1cn([C@H]2C[C@H](N=[N+]=[N-])[C@@H](CO)O2)c(=O)[nH]c1=O` [ZIDOVUDINE], the IC50 with CCRF-CEM [6] is under 0.03 µg/mL; in the test with MT2 [4], 0.14 µg/mL (≈ 0.524 µM). In addition, the Selectivity index in test [1] was over 160; in test [8] it was over 300. Also, the TAI in the test with MT2 [2] is over 82; with CCRF-CEM [10] it was over 93. Besides, the TC25 with MT2 [3] is 9.3 µg/mL (≈ 34.8 µM); with CCRF-CEM [5] it was over 10 µg/mL.
In the case of `Nc1nc(N)c2ncn(C3CC[C@@H](CO)S3)c2n1` (some centres not stated), the TAI with CCRF-CEM [11] came to 21. For the same compound, 37 µg/mL (≈ 139 µM) corresponded to half-maximal inhibition in the test on CCRF-CEM [12] (IC50). Besides, the TC25 in the test on CCRF-CEM [13] is 97 µg/mL (≈ 364 µM). For the same compound, the Selectivity index in test [8] was 2.6.
Take `Nc1ccn([C@H]2CC[C@@H](CO)O2)c(=O)n1` [ZALCITABINE]: the results for the IC50 in the test on CCRF-CEM [6] and in the test on MT2 [4] were 0.05 µg/mL (≈ 0.237 µM) and 0.44 µg/mL (≈ 2.08 µM), respectively. In addition, the Selectivity index is over 25 in [1] and 120 in test [8]. Also, the TAI with MT2 [2] was over 52; with CCRF-CEM [10], over 63. In addition, the TC25 was over 9.8 µg/mL in the test with MT2 [3] and 5.3 µg/mL (≈ 25.1 µM) in the test with CCRF-CEM [5].

The values are drawn from ChEMBL document CHEMBL1126188, “Synthesis and anti-HIV activity of 4'-thio-2',3'-dideoxynucleosides” (J Med Chem, 1992).
